# Assay results from patent US20060020042A1, “Memantine for the treatment of mild and mild to moderate Alzheimer's disease” (Forest Laboratories, Inc., priority 2004, published 2006).
# Key:
# [1] = test system: outpatients with mild-to-moderate Alzheimer's disease; test: NPI in randomized, double-blind, placebo-controlled study; format: in vivo, human; conditions: for NPI total Difference (memantine minus placebo, LS mean): Week 24, ITT, 20 mg/day
# Protocol: In the study of the present invention, there were approximately 400 patients enrolled across 42 centers. Evaluation of primary efficacy was achieved by Alzheimer's Disease Assessment Scale-cognitive subscale (ADAS-cog) and the Clinician's Interview-Based Impression of Change including caregiver information (CIBIC-plus). Secondary efficacy was determined using Alzheimer's disease Cooperative Study-Activities of Daily Living (ADCS-ADL) and Neuropsychiatric Inventory (NPI) criteria. The NPI is a validated scale that assesses behavioral disturbances in patients with dementia (Cummings et al., Neurology. 1994; 44(12):2308-14). It provides both a total score (sum of 12 domain scores) as well as scores for each subscales (e.g., delusions, hallucinations, agitation/aggression, depression/dysphoria, anxiety, disinhibition, elation/euphoria, apathy/indifference, irritability/lability, aberrant motor activity). For each subscale, both the frequency and the severity of each behavior is measured. The NPI total score ranges from 0 (higher functioning status) to 144 (lower functioning status). The NPI is based upon responses from the caregiver. The NPI was administered at Baseline and the end of Weeks 12 and 24 (or upon early termination). The study consisted of 1-2 weeks of single-blind placebo treatment followed by 24 weeks of double-blind treatment. Results were evaluated over seven clinical visits; at initial screening, baseline, and the end of weeks 4, 8, 12, 18 and 24. This study was conducted as a fixed-dose study. All patients assigned to the memantine group received an initial dose of 5 mg per day; the dose was titrated in 5 mg weekly increments to a final dose of 20 mg/day (administered as two 5 mg tablets twice a day). Study drug was provided as blister packs containing masked study medication such that placebo and memantine tablets were visually identical, and all patients received four tablets of study medication daily (in combinations of memantine 5 mg tablets and matching placebo tablets). […] Descriptive statistics were calculated by visit. […]
# [2] = test system: outpatients with mild-to-moderate Alzheimer's disease; test: ADAS-cog in randomized, double-blind, placebo-controlled study; format: in vivo, human; conditions: for ADAS-cog Non-Responder, number of patients / ADAS-cog Responder (change from baseline <= -4), number of patients / ADAS-cog Difference (memantine minus placebo, LS mean): Week 24, ITT; for ADAS-cog Difference (memantine minus placebo, LS mean): 20 mg/day
# Text: The present invention is based on results from a randomized, double-blind, placebo-controlled, multi-center, parallel-group study comparing memantine to placebo in outpatients diagnosed with probable AD according to […] criteria. Severity of mild to moderate was established using the Mini-Mental State Examination (MMSE) score (≧10 and ≦22; 0 is the lowest score and 30 is the highest score). In the study of the present invention, there were approximately 400 patients enrolled across 42 centers. Evaluation of primary efficacy was achieved by Alzheimer's Disease Assessment Scale-cognitive subscale (ADAS-cog) and the Clinician's Interview-Based Impression of Change including caregiver information (CIBIC-plus). Secondary efficacy was determined using Alzheimer's disease Cooperative Study-Activities of Daily Living (ADCS-ADL) and Neuropsychiatric Inventory (NPI) criteria. The ADAS-cog comprises an 11-item scale that is used to assess the severity of selected areas of cognitive impairment (memory, language, orientation, reason and praxis). Scores range from 0 to 70 with lower scores indicating lesser severity and a score of 70 representing the worst cognitive impairment. Its use in assessing and following changes in patients with mild to moderate Alzheimer's disease has been extensively validated. The ADAS-cog was administered at each clinic visit starting with the Baseline visit and at the end of weeks 4, 8, 12, 18 and 24 (or upon early termination). The study consisted of 1-2 weeks of single-blind placebo treatment followed by 24 weeks of double-blind treatment. Results were evaluated over seven clinical visits; at initial screening, baseline, and the end of weeks 4, 8, 12, 18 and 24. The population of patients who received at least one dose of double-blind memantine, and completed at least one post-baseline efficacy evaluation of either the ADAS-cog or the CIBIC-plus is designated the “intent-to-treat” (ITT) population. The population of randomized patients who received at least one dose of double-blind study medication is designated the “safety population”. The randomized population designates all patients randomized into the study. This study was conducted as a fixed-dose study. All patients assigned to the memantine group received an initial dose of 5 mg per day; the dose was titrated in 5 mg weekly increments to a final dose of 20 mg/day (administered as two 5 mg tablets twice a day). Study drug was provided as blister packs containing masked study medication such that placebo and memantine tablets were visually identical, and all patients received four tablets of study medication daily (in combinations of memantine 5 mg tablets and matching placebo tablets). Transient dose adjustments were permitted between weeks 3 and 8 for patients experiencing dose-limiting adverse events. However, all patients were required to receive the target dose of 20 mg/day by the end of week 8. Patients not able to tolerate the target dose by week 8 were discontinued from the study. Statistical analysis. For primary efficacy measurements, (e.g., change from Baseline (visit 2) to Week 24 in the total ADAS-cog scores from the ITT population) the comparison between memantine and placebo were performed using two-way analysis of covariance (ANCOVA) with treatment group and center as the two factors, and the baseline scores as covariate. Both the Last Observation Carried Forward (LOCF) imputation approach and the Observed Cases (OC) approach were performed at week 24. Results of ANCOVA were summarized using least square (LS) means for each treatment group with corresponding standard error (SE), the between-treatment (2-24 week) difference in the least square means with corresponding 95% confidence interval, and the between-treatment p-value corresponds to the SAS Type III sum of squares.
compound,measurement,setting,value
"CC12CC3CC(C)(C1)CC(N)(C3)C2 [Memantine, 1-amino-3,5-dimethyladamantane]",individual NPI criteria significantly better than in the placebo-treated group,"[1]; LOCF, week 24",three
same,"NPI total Difference (memantine minus placebo, LS mean)","[1]; LOCF analysis, p=0.011",−3.5
same,"NPI total Difference (memantine minus placebo, LS mean)","[1]; OC analysis, p=0.143",−2.1
same,"ADAS-cog Non-Responder, number of patients",[2]; LOCF analysis,158/148
same,"ADAS-cog Responder (change from baseline <= -4), number of patients",[2]; LOCF analysis,40/47
same,"ADAS-cog Difference (memantine minus placebo, LS mean)","[2]; LOCF analysis, p=0.003",−1.9
same,"ADAS-cog Non-Responder, number of patients",[2]; OC analysis,129/126
same,"ADAS-cog Responder (change from baseline <= -4), number of patients",[2]; OC analysis,33/34
same,"ADAS-cog Difference (memantine minus placebo, LS mean)","[2]; OC analysis, p=0.130",−1.1
same,ADAS-cog LS mean change,"[2]; week 8, LOCF, placebo 0.2, p 0.003",−1.2
same,ADAS-cog LS mean change,"[2]; week 8, OC, placebo 0.2, p=0.006",−1.1
same,ADAS-cog LS mean change,"[2]; week 12, LOCF, placebo -0.1, p=0.009",−1.4
